From ChEMBL document CHEMBL1131152, “In vitro and in vivo activities of oligodeoxynucleotide-based thrombin inhibitors containing neutral formacetal linkages” (J Med Chem, 1998) come the findings set out here.

In the assay the target is Prothrombin (Homo sapiens) (UniProt P00734). In words: Relative prothrombin time was determined as the activity of the test ODN (oligodeoxynucleotide) relative to that of GS-522.

`Cc1cn([C@H]2C[C@H](OCOC[C@H]3O[C@@H](n4cnc5c(=O)nc(N)[nH]c54)C[C@@H]3OP(=O)(O)OC[C@H]3O[C@@H](n4cnc5c(=O)[nH]c(=N)[nH]c54)C[C@@H]3OP(=O)(O)OC[C@H]3O[C@@H](n4cc(C)c(=O)[nH]c4=O)C[C@@H]3OCOC[C@H]3O[C@@H](n4cc(C)c(=O)[nH]c4=O)C[C@@H]3OP(=O)(O)OC[C@H]3O[C@@H](n4cnc5c(=O)[nH]c(=N)[nH]c54)C[C@@H]3OP(=O)(O)OC[C@H]3O[C@@H](n4cnc5c(=O)nc(N)[nH]c54)C[C@@H]3O)[C@@H](COP(=O)(O)O[C@H]3C[C@H](n4cnc5c(=O)nc(N)[nH]c54)O[C@@H]3COCO[C@H]3C[C@H](n4cc(C)c(=O)[nH]c4=O)O[C@@H]3COP(=O)(O)O[C@H]3C[C@H](n4cnc5c(=O)[nH]c(=N)[nH]c54)O[C@@H]3COP(=O)(O)O[C@H]3C[C@H](n4cnc5c(=O)nc(N)[nH]c54)O[C@@H]3COP(=O)(O)O[C@H]3C[C@H](n4cc(C)c(=O)[nH]c4=O)O[C@@H]3COCO[C@H]3C[C@H](n4cc(C)c(=O)[nH]c4=O)O[C@@H]3COP(=O)(O)O[C@H]3C[C@H](n4cnc5c(=O)[nH]c(=N)[nH]c54)O[C@@H]3COP(=O)(O)O[C@H]3C[C@H](n4cnc5c(=O)nc(N)[nH]c54)O[C@@H]3COP(=O)(O)O)O2)c(=O)[nH]c1=O` yielded a Relative PT of 0.5.

`Cc1cn([C@H]2C[C@H](OCOC[C@H]3O[C@@H](n4cc(C)c(=O)[nH]c4=O)C[C@@H]3OP(=O)(O)OC[C@H]3O[C@@H](n4cnc5c(=O)nc(N)[nH]c54)C[C@@H]3OP(=O)(O)OC[C@H]3O[C@@H](n4cnc5c(=O)[nH]c(=N)[nH]c54)C[C@@H]3OP(=O)(O)OC[C@H]3O[C@@H](n4cc(C)c(=O)[nH]c4=O)C[C@@H]3OCOC[C@H]3O[C@@H](n4cnc5c(=O)[nH]c(=N)[nH]c54)C[C@@H]3OP(=O)(O)OC[C@H]3O[C@@H](n4cc(C)c(=O)[nH]c4=O)C[C@@H]3OP(=O)(O)OC[C@H]3O[C@@H](n4cnc5c(=O)nc(N)[nH]c54)C[C@@H]3OP(=O)(O)OC[C@H]3O[C@@H](n4cnc5c(=O)[nH]c(=N)[nH]c54)C[C@@H]3OP(=O)(O)OC[C@H]3O[C@@H](n4cc(C)c(=O)[nH]c4=O)C[C@@H]3OCOC[C@H]3O[C@@H](n4cc(C)c(=O)[nH]c4=O)C[C@@H]3OP(=O)(O)OC[C@H]3O[C@@H](n4cnc5c(=O)[nH]c(=N)[nH]c54)C[C@@H]3OP(=O)(O)OC[C@H]3O[C@@H](n4cnc5c(=O)nc(N)[nH]c54)C[C@@H]3O)[C@@H](COP(=O)(O)O[C@H]3C[C@H](n4cnc5c(=O)nc(N)[nH]c54)O[C@@H]3COP(=O)(O)O[C@H]3C[C@H](n4cnc5c(=O)[nH]c(=N)[nH]c54)O[C@@H]3COP(=O)(O)O)O2)c(=O)[nH]c1=O` gave a Relative PT of 0.9.

Consider `Cc1cn([C@H]2C[C@H](OP(=O)(O)OC[C@H]3O[C@@H](n4cnc5c(=O)nc(N)[nH]c54)C[C@@H]3OP(=O)(O)OC[C@H]3O[C@@H](n4cnc5c(=O)[nH]c(=N)[nH]c54)C[C@@H]3OP(=O)(O)OC[C@H]3O[C@@H](n4cc(C)c(=O)[nH]c4=O)C[C@@H]3OP(=O)(O)OC[C@H]3O[C@@H](n4cc(C)c(=O)[nH]c4=O)C[C@@H]3OP(=O)(O)OC[C@H]3O[C@@H](n4cnc5c(=O)[nH]c(=N)[nH]c54)C[C@@H]3OP(=O)(O)OC[C@H]3O[C@@H](n4cnc5c(=O)nc(N)[nH]c54)C[C@@H]3O)[C@@H](COCO[C@H]3C[C@H](n4cnc5c(=O)nc(N)[nH]c54)O[C@@H]3COP(=O)(O)O[C@H]3C[C@H](n4cc(C)c(=O)[nH]c4=O)O[C@@H]3COP(=O)(O)O[C@H]3C[C@H](n4cnc5c(=O)[nH]c(=N)[nH]c54)O[C@@H]3COP(=O)(O)O[C@H]3C[C@H](n4cnc5c(=O)nc(N)[nH]c54)O[C@@H]3COP(=O)(O)O[C@H]3C[C@H](n4cc(C)c(=O)[nH]c4=O)O[C@@H]3COP(=O)(O)O[C@H]3C[C@H](n4cc(C)c(=O)[nH]c4=O)O[C@@H]3COP(=O)(O)O[C@H]3C[C@H](n4cnc5c(=O)nc(N)[nH]c54)O[C@@H]3COP(=O)(O)O[C@H]3C[C@H](n4cnc5c(=O)nc(N)[nH]c54)O[C@@H]3COP(=O)(O)O)O2)c(=O)[nH]c1=O`, for which the Relative PT worked out at 1.1.

Compound `Cc1cn([C@H]2C[C@H](OCOC[C@H]3O[C@@H](n4cnc5c(=O)nc(N)[nH]c54)C[C@@H]3OP(=O)(O)OC[C@H]3O[C@@H](n4cc(C)c(=O)[nH]c4=O)C[C@@H]3OP(=O)(O)OC[C@H]3O[C@@H](n4cnc5c(=O)nc(N)[nH]c54)C[C@@H]3OP(=O)(O)OC[C@H]3O[C@@H](n4cnc5c(=O)[nH]c(=N)[nH]c54)C[C@@H]3OP(=O)(O)OC[C@H]3O[C@@H](n4cc(C)c(=O)[nH]c4=O)C[C@@H]3OP(=O)(O)OC[C@H]3O[C@@H](n4cc(C)c(=O)[nH]c4=O)C[C@@H]3OP(=O)(O)OC[C@H]3O[C@@H](n4cnc5c(=O)[nH]c(=N)[nH]c54)C[C@@H]3OP(=O)(O)OC[C@H]3O[C@@H](n4cnc5c(=O)nc(N)[nH]c54)C[C@@H]3O)[C@@H](COP(=O)(O)O[C@H]3C[C@H](n4cnc5c(=O)[nH]c(=N)[nH]c54)O[C@@H]3COP(=O)(O)O[C@H]3C[C@H](n4cnc5c(=O)nc(N)[nH]c54)O[C@@H]3COP(=O)(O)O[C@H]3C[C@H](n4cc(C)c(=O)[nH]c4=O)O[C@@H]3COP(=O)(O)O[C@H]3C[C@H](n4cc(C)c(=O)[nH]c4=O)O[C@@H]3COP(=O)(O)O[C@H]3C[C@H](n4cnc5c(=O)nc(N)[nH]c54)O[C@@H]3COP(=O)(O)O[C@H]3C[C@H](n4cnc5c(=O)nc(N)[nH]c54)O[C@@H]3COP(=O)(O)O)O2)c(=O)[nH]c1=O` showed a Relative PT of 0.8.

Compound `Cc1cn([C@H]2C[C@H](OP(=O)(O)OC[C@H]3O[C@@H](n4cnc5c(=O)nc(N)[nH]c54)C[C@@H]3OCOC[C@H]3O[C@@H](n4cnc5c(=O)[nH]c(=N)[nH]c54)C[C@@H]3OP(=O)(O)OC[C@H]3O[C@@H](n4cc(C)c(=O)[nH]c4=O)C[C@@H]3OP(=O)(O)OC[C@H]3O[C@@H](n4cnc5c(=O)[nH]c(=N)[nH]c54)C[C@@H]3OP(=O)(O)OC[C@H]3O[C@@H](n4cc(C)c(=O)[nH]c4=O)C[C@@H]3OP(=O)(O)OC[C@H]3O[C@@H](n4cnc5c(=O)nc(N)[nH]c54)C[C@@H]3OP(=O)(O)OC[C@H]3O[C@@H](n4cnc5c(=O)[nH]c(=N)[nH]c54)C[C@@H]3OP(=O)(O)OC[C@H]3O[C@@H](n4cc(C)c(=O)[nH]c4=O)C[C@@H]3OP(=O)(O)OC[C@H]3O[C@@H](n4cc(C)c(=O)[nH]c4=O)C[C@@H]3OP(=O)(O)OC[C@H]3O[C@@H](n4cnc5c(=O)[nH]c(=N)[nH]c54)C[C@@H]3OCOC[C@H]3O[C@@H](n4cnc5c(=O)nc(N)[nH]c54)C[C@@H]3O)[C@@H](COP(=O)(O)O[C@H]3C[C@H](n4cc(C)c(=O)[nH]c4=O)O[C@@H]3COP(=O)(O)O[C@H]3C[C@H](n4cnc5c(=O)nc(N)[nH]c54)O[C@@H]3COP(=O)(O)O[C@H]3C[C@H](n4cnc5c(=O)[nH]c(=N)[nH]c54)O[C@@H]3COP(=O)(O)O)O2)c(=O)[nH]c1=O` displayed a Relative PT of 0.6.

The compound `Cc1cn([C@H]2C[C@H](OP(=O)(O)OC[C@H]3O[C@@H](n4cc(C)c(=O)[nH]c4=O)C[C@@H]3OP(=O)(O)OC[C@H]3O[C@@H](n4cnc5c(=O)[nH]c(=N)[nH]c54)C[C@@H]3OP(=O)(O)OC[C@H]3O[C@@H](n4cnc5c(=O)nc(N)[nH]c54)C[C@@H]3O)[C@@H](COCO[C@H]3C[C@H](n4cnc5c(=O)[nH]c(=N)[nH]c54)O[C@@H]3COP(=O)(O)O[C@H]3C[C@H](n4cnc5c(=O)nc(N)[nH]c54)O[C@@H]3COP(=O)(O)O[C@H]3C[C@H](n4cc(C)c(=O)[nH]c4=O)O[C@@H]3COP(=O)(O)O[C@H]3C[C@H](n4cnc5c(=O)nc(N)[nH]c54)O[C@@H]3COP(=O)(O)O[C@H]3C[C@H](n4cc(C)c(=O)[nH]c4=O)O[C@@H]3COP(=O)(O)O[C@H]3C[C@H](n4cnc5c(=O)[nH]c(=N)[nH]c54)O[C@@H]3COP(=O)(O)O[C@H]3C[C@H](n4cnc5c(=O)nc(N)[nH]c54)O[C@@H]3COP(=O)(O)O[C@H]3C[C@H](n4cc(C)c(=O)[nH]c4=O)O[C@@H]3COP(=O)(O)O[C@H]3C[C@H](n4cc(C)c(=O)[nH]c4=O)O[C@@H]3COP(=O)(O)O[C@H]3C[C@H](n4cnc5c(=O)[nH]c(=N)[nH]c54)O[C@@H]3COP(=O)(O)O[C@H]3C[C@H](n4cnc5c(=O)nc(N)[nH]c54)O[C@@H]3COP(=O)(O)O)O2)c(=O)[nH]c1=O` had a Relative PT of 0.8.

In the case of `Cc1cn([C@H]2C[C@H](OP(=O)(O)OC[C@H]3O[C@@H](n4cnc5c(=O)nc(N)[nH]c54)C[C@@H]3OP(=O)(O)OC[C@H]3O[C@@H](n4cnc5c(=O)[nH]c(=N)[nH]c54)C[C@@H]3OP(=O)(O)OC[C@H]3O[C@@H](n4cc(C)c(=O)[nH]c4=O)C[C@@H]3OP(=O)(O)OC[C@H]3O[C@@H](n4cnc5c(=O)nc(N)[nH]c54)C[C@@H]3OP(=O)(O)OC[C@H]3O[C@@H](n4cc(C)c(=O)[nH]c4=O)C[C@@H]3OP(=O)(O)OC[C@H]3O[C@@H](n4cnc5c(=O)nc(N)[nH]c54)C[C@@H]3OCOC[C@H]3O[C@@H](n4cnc5c(=O)[nH]c(=N)[nH]c54)C[C@@H]3OP(=O)(O)OC[C@H]3O[C@@H](n4cc(C)c(=O)[nH]c4=O)C[C@@H]3OP(=O)(O)OC[C@H]3O[C@@H](n4cc(C)c(=O)[nH]c4=O)C[C@@H]3OP(=O)(O)OC[C@H]3O[C@@H](n4cnc5c(=O)[nH]c(=N)[nH]c54)C[C@@H]3OP(=O)(O)OC[C@H]3O[C@@H](n4cnc5c(=O)nc(N)[nH]c54)C[C@@H]3O)[C@@H](COP(=O)(O)O[C@H]3C[C@H](n4cc(C)c(=O)[nH]c4=O)O[C@@H]3COP(=O)(O)O[C@H]3C[C@H](n4cnc5c(=O)[nH]c(=N)[nH]c54)O[C@@H]3COP(=O)(O)O[C@H]3C[C@H](n4cnc5c(=O)nc(N)[nH]c54)O[C@@H]3COP(=O)(O)O)O2)c(=O)[nH]c1=O`, the Relative PT stood at 0.8.
